Measured values published in ChEMBL document CHEMBL3797190, “Development of 3,5-Dinitrobenzylsulfanyl-1,3,4-oxadiazoles and Thiadiazoles as Selective Antitubercular Agents Active Against Replicating and Nonreplicating Mycobacterium tuberculosis” (J Med Chem, 2016).
Values after ≈ are worked out from the molar mass of the structure shown.

Columns and labels:
[1] = Cytotoxicity against human HuH7 cells assessed as cell viability after 24 hrs by MTS assay; assay type: cell-based; conditions: Huh-7, 24 h
Mycobacterium kansasii [2] = assay: Antimycobacterial activity against Mycobacterium kansasii CNCTC My 235/80 after 7 days by microdilution method; assay type: functional; conditions: CNCTC My 235/80, 168 h
Mycobacterium kansasii [3] = assay: Antimycobacterial activity against Mycobacterium kansasii CNCTC My 6509/96 after 7 days by microdilution method; assay type: functional; conditions: CNCTC My 6509/96, 168 h
HeLa [4] = assay: Cytotoxicity against human HeLa cells assessed as cell viability after 24 hrs by MTS assay; assay type: cell-based
Mycobacterium avium [5] = assay: Antimycobacterial activity against Mycobacterium avium CNCTC My 330/88 after 21 days by microdilution method; assay type: functional; conditions: CNCTC My 330/88, 504 h
[6] = Cytotoxicity against human HeLa cells assessed as cell viability at 20 uM after 24 hrs by MTS assay; assay type: cell-based; conditions: read-out: Activity
Mycobacterium kansasii [7] = assay: Antimycobacterial activity against Mycobacterium kansasii CNCTC My 235/80 after 14 days by microdilution method; assay type: functional; conditions: CNCTC My 235/80, 336 h
[8] = Cytotoxicity against human HuH7 cells assessed as cell viability at 20 uM after 48 hrs by MTS assay; assay type: cell-based, Huh-7; conditions: read-out: Activity
[9] = tested on: Mycobacterium tuberculosis; assay: Antimycobacterial activity against Mycobacterium tuberculosis CNCTC My 331/88 after 14 days by microdilution method; assay type: functional; conditions: CNCTC My 331/88, 336 h
[10] = Cytotoxicity against human HuH7 cells assessed as cell viability at 20 uM after 24 hrs by MTS assay; assay type: cell-based, Huh-7; conditions: read-out: Activity
[11] = Cytotoxicity against MDCK2-MDR1 cells assessed as cell viability at 20 uM after 48 hrs by MTS assay; assay type: ADME, cell-based, Canis lupus familiaris, MDCK-II; conditions: dog, read-out: Activity
Mycobacterium kansasii [12] = assay: Antimycobacterial activity against Mycobacterium kansasii CNCTC My 6509/96 after 21 days by microdilution method; assay type: functional; conditions: CNCTC My 6509/96, 504 h
Mycobacterium kansasii [13] = assay: Antimycobacterial activity against Mycobacterium kansasii CNCTC My 6509/96 after 14 days by microdilution method; assay type: functional; conditions: CNCTC My 6509/96, 336 h
HeLa [14] = assay: Cytotoxicity against human HeLa cells assessed as cell viability after 48 hrs by MTS assay; assay type: cell-based
Mycobacterium avium [15] = assay: Antimycobacterial activity against Mycobacterium avium CNCTC My 330/88 after 14 days by microdilution method; assay type: functional; conditions: CNCTC My 330/88, 336 h
[16] = tested on: Mycobacterium tuberculosis; assay: Antimycobacterial activity against Mycobacterium tuberculosis CNCTC My 331/88 after 21 days by microdilution method; assay type: functional; conditions: CNCTC My 331/88, 504 h
Mycobacterium kansasii [17] = assay: Antimycobacterial activity against Mycobacterium kansasii CNCTC My 235/80 after 21 days by microdilution method; assay type: functional; conditions: CNCTC My 235/80, 504 h
[18] = Cytotoxicity against MDCK2-MDR1 cells assessed as cell viability at 20 uM after 24 hrs by MTS assay; assay type: ADME, cell-based, Canis lupus familiaris, MDCK-II; conditions: dog, read-out: Activity
[19] = Cytotoxicity against MDCK2-MDR1 cells assessed as cell viability after 24 hrs by MTS assay; assay type: ADME, cell-based; conditions: Canis lupus familiaris, MDCK-II
[20] = Cytotoxicity against human HeLa cells assessed as cell viability at 20 uM after 48 hrs by MTS assay; assay type: cell-based; conditions: read-out: Activity
[21] = Cytotoxicity against MDCK2-MDR1 cells assessed as cell viability after 48 hrs by MTS assay; assay type: ADME, cell-based; conditions: Canis lupus familiaris, MDCK-II
[22] = tested on: Staphylococcus epidermidis; assay: Antibacterial activity against Staphylococcus epidermidis H 6966/08 after 24 to 48 hrs by broth microdilution method; assay type: functional
Nakaseomyces glabratus = assay: Antifungal activity against Candida glabrata 20/I after 24 to 48 hrs by broth microdilution method; assay type: functional
Candida albicans = assay: Antifungal activity against Candida albicans ATCC 44859 after 24 to 48 hrs by broth microdilution method; assay type: functional
Staphylococcus aureus [23] = assay: Antibacterial activity against Staphylococcus aureus ATCC 6538 after 24 to 48 hrs by broth microdilution method; assay type: functional
Klebsiella pneumoniae [24] = assay: Antibacterial activity against ESBL producing Klebsiella pneumoniae J 14368/08 after 24 to 48 hrs by broth microdilution method; assay type: functional
Candida tropicalis = assay: Antifungal activity against Candida tropicalis 156 after 24 to 48 hrs by broth microdilution method; assay type: functional
[25] = Cytotoxicity against human HuH7 cells assessed as cell viability after 48 hrs by MTS assay; assay type: cell-based; conditions: Huh-7, 48 h
[26] = tested on: Trichophyton mentagrophytes; assay: Antifungal activity against Trichophyton mentagrophytes 445 after 72 to 120 hrs by broth microdilution method; assay type: functional
Trichosporon asahii = assay: Antifungal activity against Trichosporon asahii 1188 after 24 to 48 hrs by broth microdilution method; assay type: functional
Lichtheimia corymbifera = assay: Antifungal activity against Absidia corymbifera 272 after 24 to 48 hrs by broth microdilution method; assay type: functional
Enterococcus faecalis = assay: Antibacterial activity against Enterococcus faecalis J 14365/08 after 24 to 48 hrs by broth microdilution method; assay type: functional
Pseudomonas aeruginosa = assay: Antibacterial activity against Pseudomonas aeruginosa ATCC 9027 after 24 to 48 hrs by broth microdilution method; assay type: functional
Aspergillus fumigatus = assay: Antifungal activity against Aspergillus fumigatus 231 after 24 to 48 hrs by broth microdilution method; assay type: functional
Staphylococcus aureus [27] = assay: Antibacterial activity against methicillin-resistant Staphylococcus aureus H 5996/08 after 24 to 48 hrs by broth microdilution method; assay type: functional
Pichia kudriavzevii = assay: Antifungal activity against Candida krusei E28 after 24 to 48 hrs by broth microdilution method; assay type: functional
Klebsiella pneumoniae [28] = assay: Antibacterial activity against Klebsiella pneumoniae D 11750/08 after 24 to 48 hrs by broth microdilution method; assay type: functional
Escherichia coli = assay: Antibacterial activity against Escherichia coli ATCC 8739 after 24 to 48 hrs by broth microdilution method; assay type: functional
Salmonella typhimurium [29] = assay: Mutagenic activity in Salmonella typhimurium TA98 assessed as reverse mutation at 30 uM by Ames test; assay type: toxicity, organism-based; conditions: salmonella enterica subsp. enterica serovar typhimurium
Salmonella typhimurium [30] = assay: Mutagenic activity in Salmonella typhimurium TA100 assessed as reverse mutation at 30 uM by Ames test; assay type: toxicity, organism-based; conditions: salmonella enterica subsp. enterica serovar typhimurium

O=[N+]([O-])c1cc(CSc2nnc(-c3cccc(Cl)c3)s2)cc([N+](=O)[O-])c1
IC50 [1]: > 20 µM | MIC99 (Mycobacterium kansasii [2]): 0.25 µM (≈ 0.102 µg/mL) | MIC99 (Mycobacterium kansasii [3]): 0.25 µM (≈ 0.102 µg/mL) | IC50 (HeLa [4]): > 20 µM | MIC99 (Mycobacterium avium [5]): 16 µM (≈ 6.54 µg/mL) | viability at 24 h, 20 µM [6]: 78.6% | MIC99 (Mycobacterium kansasii [7]): 1 µM (≈ 0.409 µg/mL) | viability at 48 h, 20 µM [8]: 32.8% | MIC99 [9]: 0.125 µM (≈ 0.0511 µg/mL) | viability at 24 h, 20 µM [10]: 90.7% | viability at 48 h, 20 µM [11]: 48.6% | MIC99 (Mycobacterium kansasii [12]): 0.5 µM (≈ 0.204 µg/mL) | MIC99 (Mycobacterium kansasii [13]): 0.5 µM (≈ 0.204 µg/mL) | IC50 (HeLa [14]): 2.6 µM | MIC99 (Mycobacterium avium [15]): 8 µM (≈ 3.27 µg/mL) | MIC99 [16]: 0.125 µM (≈ 0.0511 µg/mL) | MIC99 (Mycobacterium kansasii [17]): 1 µM (≈ 0.409 µg/mL) | viability at 24 h, 20 µM [18]: 108% | IC50 [19]: > 20 µM | viability at 48 h, 20 µM [20]: 16.8%

COc1ccc(-c2nnc(SCc3ccc([N+](=O)[O-])cc3[N+](=O)[O-])o2)cc1
IC50 [1]: > 20 µM | MIC99 (Mycobacterium kansasii [2]): 2 µM (≈ 0.777 µg/mL) | MIC99 (Mycobacterium kansasii [3]): 2 µM (≈ 0.777 µg/mL) | IC50 (HeLa [4]): > 20 µM | MIC99 (Mycobacterium avium [5]): 4 µM (≈ 1.55 µg/mL) | IC50 [21]: > 20 µM | viability at 24 h, 20 µM [6]: 89.9% | MIC99 (Mycobacterium kansasii [7]): 8 µM (≈ 3.11 µg/mL) | viability at 48 h, 20 µM [8]: 77% | MIC99 [9]: 0.5 µM (≈ 0.194 µg/mL) | viability at 24 h, 20 µM [10]: 85.1% | MIC95 [22]: > 125 µM | MIC80 (Nakaseomyces glabratus): > 125 µM | MIC80 (Candida albicans): > 125 µM | MIC95 (Staphylococcus aureus [23]): > 125 µM | viability at 48 h, 20 µM [11]: 78.5% | MIC95 (Klebsiella pneumoniae [24]): > 125 µM | MIC99 (Mycobacterium kansasii [12]): 16 µM (≈ 6.21 µg/mL) | MIC99 (Mycobacterium kansasii [13]): 8 µM (≈ 3.11 µg/mL) | MIC80 (Candida tropicalis): > 125 µM | IC50 [25]: > 20 µM | MIC50 [26]: > 125 µM | IC50 (HeLa [14]): > 20 µM | MIC99 (Mycobacterium avium [15]): 4 µM (≈ 1.55 µg/mL) | MIC80 (Trichosporon asahii): > 125 µM | MIC99 [16]: 1 µM (≈ 0.388 µg/mL) | MIC99 (Mycobacterium kansasii [17]): 16 µM (≈ 6.21 µg/mL) | MIC50 (Lichtheimia corymbifera): > 125 µM | viability at 24 h, 20 µM [18]: 87.9% | MIC95 (Enterococcus faecalis): > 125 µM | MIC95 (Pseudomonas aeruginosa): > 125 µM | MIC50 (Aspergillus fumigatus): > 125 µM | MIC95 (Staphylococcus aureus [27]): > 125 µM | IC50 [19]: > 20 µM | MIC80 (Pichia kudriavzevii): > 125 µM | viability at 48 h, 20 µM [20]: 106% | MIC95 (Klebsiella pneumoniae [28]): > 125 µM | MIC95 (Escherichia coli): > 125 µM

O=[N+]([O-])c1ccc2c(c1)Cc1ccccc1-2 [2-NITROFLUORENE]
Activity (Salmonella typhimurium [29]): Toxic

O=[N+]([O-])c1cc(CSc2nnc(-c3cccc(Cl)c3)o2)cc([N+](=O)[O-])c1
IC50 [1]: > 20 µM | Activity (Salmonella typhimurium [30]): Non-toxic | MIC99 (Mycobacterium kansasii [2]): 0.125 µM (≈ 0.0491 µg/mL) | MIC99 (Mycobacterium kansasii [3]): 0.125 µM (≈ 0.0491 µg/mL) | IC50 (HeLa [4]): > 20 µM | MIC99 (Mycobacterium avium [5]): 16 µM (≈ 6.28 µg/mL) | IC50 [21]: > 20 µM | viability at 24 h, 20 µM [6]: 81.9% | MIC99 (Mycobacterium kansasii [7]): 0.25 µM (≈ 0.0982 µg/mL) | viability at 48 h, 20 µM [8]: 45.9% | MIC99 [9]: ≤ 0.03 µM | viability at 24 h, 20 µM [10]: 97.9% | Activity (Salmonella typhimurium [29]): Non-toxic | viability at 48 h, 20 µM [11]: 57.9% | MIC99 (Mycobacterium kansasii [12]): 1 µM (≈ 0.393 µg/mL) | MIC99 (Mycobacterium kansasii [13]): 0.5 µM (≈ 0.196 µg/mL) | MIC99 (Mycobacterium avium [15]): 16 µM (≈ 6.28 µg/mL) | MIC99 [16]: 0.06 µM (≈ 0.0236 µg/mL) | MIC99 (Mycobacterium kansasii [17]): 0.5 µM (≈ 0.196 µg/mL) | viability at 24 h, 20 µM [18]: 93.3% | IC50 [19]: > 20 µM | viability at 48 h, 20 µM [20]: 34.6%

O=[N+]([O-])c1cc(CSc2nnc(-c3ccccc3)s2)cc([N+](=O)[O-])c1
IC50 [1]: > 20 µM | Activity (Salmonella typhimurium [30]): Non-toxic | MIC99 (Mycobacterium kansasii [2]): 0.25 µM (≈ 0.0936 µg/mL) | MIC99 (Mycobacterium kansasii [3]): 0.25 µM (≈ 0.0936 µg/mL) | IC50 (HeLa [4]): > 20 µM | MIC99 (Mycobacterium avium [5]): 16 µM (≈ 5.99 µg/mL) | IC50 [21]: 3.1 µM | viability at 24 h, 20 µM [6]: 78.5% | MIC99 (Mycobacterium kansasii [7]): 0.5 µM (≈ 0.187 µg/mL) | viability at 48 h, 20 µM [8]: 36.3% | MIC99 [9]: 0.06 µM (≈ 0.0225 µg/mL) | viability at 24 h, 20 µM [10]: 84.3% | Activity (Salmonella typhimurium [29]): Non-toxic | viability at 48 h, 20 µM [11]: 7.3% | MIC99 (Mycobacterium kansasii [12]): 1 µM (≈ 0.374 µg/mL) | MIC99 (Mycobacterium kansasii [13]): 0.5 µM (≈ 0.187 µg/mL) | IC50 (HeLa [14]): 2.4 µM | MIC99 (Mycobacterium avium [15]): 8 µM (≈ 3 µg/mL) | MIC99 [16]: 0.125 µM (≈ 0.0468 µg/mL) | MIC99 (Mycobacterium kansasii [17]): 1 µM (≈ 0.374 µg/mL) | viability at 24 h, 20 µM [18]: 97.8% | IC50 [19]: > 20 µM | viability at 48 h, 20 µM [20]: 15.9%
